Counter-ions that a name gives are not always drawn.
Columns and labels:
[1] = target: T1, full-length proMMP9(1-707) activation by catalytic MMP3 (Homo sapiens, UniProt P14780, R574P); assay: proMMP9/MMP3 P126 Activation Assay; type: biochemical; parameters: made in house; host or cells: E. coli (MMP3); conditions: proMMP9 from HEK293 cells
Method: The assay buffer employed was 50 mM Hepes, pH 7.5, 10 mM CaCl2, 0.05% Brij-35. DMSO was included at a final concentration of 2%, arising from the test compound addition. […] The reaction volume was 50 μL. […] Initial velocities were plotted by use of a four-parameter logistics equation (GraphPad Prism® software) for determination of IC50.

[2] = target: T2, proMMP9(67-444;ΔFnII) (SEQ ID NO:5) (Homo sapiens, UniProt P14780, DEL216-390); assay: ThermoFluor binding assay with proMMP9(67-444;ΔFnII)
T2 construct: amino acid pairs including: 29-215/391-444, 67-215/391-444, and 20-215/391-445, respectively; start methionine (N); made in house; host or cells: E. coli BL21(DE3) RIL
T2 sequence (P14780 with tags, fused parts or gaps DEL216-390): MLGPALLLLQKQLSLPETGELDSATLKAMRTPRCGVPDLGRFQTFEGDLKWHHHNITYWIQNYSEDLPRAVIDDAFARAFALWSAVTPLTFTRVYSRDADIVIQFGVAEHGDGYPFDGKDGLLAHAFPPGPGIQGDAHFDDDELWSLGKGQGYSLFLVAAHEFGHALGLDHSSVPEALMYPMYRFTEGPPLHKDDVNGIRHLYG
Method: (§1) The experiments were carried out using instruments available from Johnson & Johnson Pharmaceutical Research & Development, LLC. TF dye used in all experiments was […] (1,8-ANS) (Invitrogen: A-47).
(§2) Columns 12 and 24 were used as DMSO reference and contained no compound. […] Following compound dispense, protein and dye solutions were added to achieve the final assay volume of 3 μL.
(§3) Assay plates were robotically loaded onto a thermostatically controlled PCR-type thermal block and then heated from 40 to 90° C. at a ramp-rate of 1° C./min for all experiments. Fluorescence was measured by continuous illumination with UV light (Hamamatsu LC6) supplied via fiber optics and filtered through a band-pass filter (380-400 nm; >6 OD cutoff). Fluorescence emission of the entire 384-well plate was detected by measuring light intensity using a CCD camera (Sensys, Roper Scientific) filtered to detect 500±25 nm, resulting in simultaneous and independent readings of all 384 wells.
(§4) Thermodynamic parameters necessary for fitting compound binding for each proMMP were estimated by differential scanning calorimetry (DSC) and from ThermoFluor® data. The heat capacity of unfolding for each protein was estimated from the molecular weight and from ThermoFluor® dosing data.
The protein sample preparations had to include a desalting buffer exchange step via a PD-10 gravity column (GE Healthcare).

[3] = target: T3, proMMP9(20-445;ΔFnII) (SEQ ID NO:6) (Homo sapiens, UniProt P14780, DEL216-390); assay: ThermoFluor binding assay with proMMP9(20-445;ΔFnII)
T3 construct: amino acid pairs including: 29-215/391-444, 67-215/391-444, and 20-215/391-445, respectively; start methionine (N); made in house; host or cells: E. coli BL21(DE3) RIL
T3 sequence (P14780 with tags, fused parts or gaps DEL216-390): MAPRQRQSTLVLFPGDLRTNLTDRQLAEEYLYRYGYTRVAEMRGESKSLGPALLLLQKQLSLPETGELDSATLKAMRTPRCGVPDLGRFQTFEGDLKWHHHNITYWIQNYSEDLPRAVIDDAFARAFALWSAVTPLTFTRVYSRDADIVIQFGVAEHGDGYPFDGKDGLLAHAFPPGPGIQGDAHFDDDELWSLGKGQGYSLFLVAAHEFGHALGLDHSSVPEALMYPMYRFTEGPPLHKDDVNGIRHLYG
Method: as §1, §2, §3, §4
The protein sample preparations included a desalting buffer exchange step via a PD-10 gravity column (GE Healthcare).

[4] = target: T4, proMMP13(1-268) (SEQ ID NO:7) (Homo sapiens, UniProt P45452); assay: ThermoFluor binding assay with proMMP13(1-268)
T4 construct: 6x-histidine tag (C); made in house; host or cells: HEK293
Method: The ThermoFluor® (TF) assay is a 384-well plate-based binding assay that measures thermal stability of proteins (Biomol Screen 2001, 6, 429-40; Biochemistry 2005, 44, 5258-66). The experiments were carried out using instruments available from Johnson & Johnson Pharmaceutical Research & Development, LLC. TF dye used in all experiments was […] (1,8-ANS) (Invitrogen: A-47).
Compounds were arranged in a pre-dispensed plate (Greiner Bio-one: 781280), wherein compounds were serially diluted in 100% DMSO across 11 columns within a series. Columns 12 and 24 were used as DMSO reference and contained no compound. For multiple compound concentration-response experiments, the compound aliquots ([…]) were robotically predispensed directly into black 384-well polypropylene PCR microplates (Abgene: TF-0384/k) using a Cartesian Hummingbird liquid handler (DigiLab, Holliston, Mass.). Following compound dispense, protein and dye solutions were added to achieve the final assay volume of 3 μL. The assay solutions were overlayed with 1 μL of silicone oil (Fluka, type DC 200: 85411) to prevent evaporation.
as §3, with “wells. A single image with 20-sec exposure time was collected at each temperature, and the sum of the pixel intensity in a given area of the assay plate was recorded vs temperature and fit to standard equations to yield the Tm (J Biomol Screen 2001, 6, 429-40).” for “wells.”
as §4
The proMMP13(1-268) (SEQ ID NO:7) protein sample preparations included a desalting buffer exchange step via a PD-10 gravity column (GE Healthcare). The desalting buffer exchange was performed prior to diluting the protein to the final assay concentration of 3.5 μM. The concentration of proMMP13(1-268) (SEQ ID NO:7) was estimated spectrophotometrically based on a calculated extinction coefficient of ε280=37000 M^−1 cm^−1, a calculated molecular weight of 30.8 kDa, and calculated pI of 5.33. ThermoFluor® reference conditions were defined as follows: 100 μg/mL proMMP13(1-268) (SEQ ID NO:7), 25 μM 1,8-ANS, pH 7.0 Buffer (50 mM HEPES pH 7.0, 100 mM NaCl, 0.001% Tween-20, 2.5 mM MgCl2, 300 μM CaCl2). The thermodynamic parameters for proMMP13(1-268) (SEQ ID NO:7) are as follows: Tm (° C.)=67 (+/−0.1), ΔUH(Tm) (cal mol^−1)=107000(+/−5000), ΔUS(Tm) (cal mol^−1 K^−1)=318, ΔUCp (cal mol^−1 K^−1)=2600.

[5] = target: T1, full-length proMMP9(1-707) activation by catalytic MMP3; assay: ProMMP9/MMP3 DQ Gelatin Activation Assay;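 further: readout is fluorescence of quenched fluorescein gelatin cut by activated MMP9, 30 min activation at 37 °C, inhibition relative to DMSO-only controls with EDTA as blank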; type: biochemical; parameters: made in house; host or cells: COS-1 (proMMP9); E. coli (MMP3); conditions: proMMP9 from COS-1 cells; read-out: ProMMP9/MMP3 DQ gel, IC50

T1 sequence (P14780 20-707 R574P): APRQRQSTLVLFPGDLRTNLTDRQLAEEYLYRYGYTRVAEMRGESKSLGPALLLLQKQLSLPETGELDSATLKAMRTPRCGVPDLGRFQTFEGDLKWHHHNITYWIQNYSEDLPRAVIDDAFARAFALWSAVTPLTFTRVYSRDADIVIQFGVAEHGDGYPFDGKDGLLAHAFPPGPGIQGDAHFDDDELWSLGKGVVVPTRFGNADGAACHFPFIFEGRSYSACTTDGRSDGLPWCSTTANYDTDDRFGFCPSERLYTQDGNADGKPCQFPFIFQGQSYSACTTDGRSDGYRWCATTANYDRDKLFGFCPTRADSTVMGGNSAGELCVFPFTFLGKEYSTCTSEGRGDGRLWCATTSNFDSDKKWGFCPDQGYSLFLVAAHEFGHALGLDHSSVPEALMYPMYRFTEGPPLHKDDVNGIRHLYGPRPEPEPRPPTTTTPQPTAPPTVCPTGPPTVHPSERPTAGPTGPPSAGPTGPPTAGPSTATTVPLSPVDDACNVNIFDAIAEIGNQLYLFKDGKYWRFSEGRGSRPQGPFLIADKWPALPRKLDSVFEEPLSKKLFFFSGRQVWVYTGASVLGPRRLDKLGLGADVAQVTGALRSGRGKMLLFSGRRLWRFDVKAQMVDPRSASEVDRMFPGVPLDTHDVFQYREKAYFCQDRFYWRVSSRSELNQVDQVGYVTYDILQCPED

Row | SMILES | IC50 [1] | Kd [2] | Kd [3] | Kd [4] | IC50 [5]
1 | Cc1nc(C)c(-c2csc(Nc3ccccc3OC(C)C)n2)s1 [Example 2, (2′,4′-Dimethyl-[4,5′]bithiazolyl-2-yl)-(2-isopropoxy-phenyl)-amine] | 2.5 µM | 55.3 µM | > 95 µM | 42.5 µM | 
2 | Cc1nc(N)sc1-c1csc(Nc2ccccc2OC(C)C)n1 [Example 3, N^2-(2-Isopropoxy-phenyl)-4′-methyl-[4,5′]bithiazolyl-2,2′-diamine.TFA] | 2 µM | 1.15 µM | 3.81 µM |  | 
3 | Cc1nc(C)c(-c2csc(Nc3ccccc3OC(F)(F)F)n2)s1 [Example 14, (2′,4′-Dimethyl-[4,5′]bithiazolyl-2-yl)-(2-trifluoromethoxy-phenyl)-amine] | 3.6 µM |  | > 95 µM | 9.12 µM | 
4 | CC(C)Oc1ccccc1Nc1nc(-c2cccnc2)cs1 [Example 15, (2-Isopropoxy-phenyl)-(4-pyridin-3-yl-thiazol-2-yl)-amine] | 2.5 µM | 43.3 µM | > 95 µM |  | 
5 | COc1ccc(Br)cc1Nc1nc(-c2sc(N)nc2C)cs1 [Example 20, N^2-(5-Bromo-2-methoxy-phenyl)-4′-methyl-[4,5′]bithiazolyl-2,2′-diamine.TFA] | 3.3 µM | 0.414 µM | 2.15 µM |  | 
6 | COc1ccc(Br)cc1Nc1nc(-c2sc(C)nc2C)cs1 [Example 27, (5-Bromo-2-methoxy-phenyl)-(2′,4′-dimethyl-[4,5′]bithiazolyl-2-yl)-amine.TFA] | 3.1 µM |  | 49.9 µM |  | 
7 | COc1ccc(F)cc1Nc1nc(-c2ccc3c(c2)ncn3C)cs1 [Example 41, (5-Fluoro-2-methoxy-phenyl)-[4-(1-methyl-1H-benzoimidazol-5-yl)-thiazol-2-yl]-amine] | 1.9 µM |  | 1.94 µM |  | 
8 | COc1ccc(OC)c(Nc2nc(-c3c[nH]c4ncccc34)cs2)c1 [Example 73, (2,5-Dimethoxy-phenyl)-[4-(1H-pyrrolo[2,3-b]pyridin-3-yl)-thiazol-2-yl]-amine] |  | 15.9 µM | 25.5 µM | 18 µM | 17.9 µM
9 | CCOc1ccccc1Nc1nc(-c2cn3ccccc3n2)cs1 [Example 74, (2-Ethoxy-phenyl)-(4-imidazo[1,2-a]pyridin-2-yl-thiazol-2-yl)-amine] |  | 66.1 µM | 7.89 µM | > 95 µM | 21.1 µM
10 | COc1ccccc1Nc1nc(-c2c[nH]c3ncccc23)cs1 [Example 76, (2-Methoxy-phenyl)-[4-(1H-pyrrolo[2,3-b]pyridin-3-yl)-thiazol-2-yl]-amine] |  | 10.8 µM | 27 µM | 57.1 µM | 16.3 µM
11 | COc1ccc(F)cc1Nc1nc(-c2sc(C)nc2C)c(C)s1 [Example 77, N-(5-fluoro-2-methoxyphenyl)-2′,4′,5-trimethyl-[4,5′-bithiazol]-2-amine.HBr] | 3.8 µM | 20.6 µM | > 77 µM |  | 
12 | COc1ccc(F)cc1Nc1nc(-c2ccc(N3CCN(C4CC4)CC3)nc2)cs1 [Example 79, 4-(6-(4-Cyclopropylpiperazin-1-yl)pyridin-3-yl)-N-(5-fluoro-2-methoxyphenyl)thiazol-2-amine.TFA] | 1 µM | 3.93 µM | 21.4 µM |  | 

Further lines, results first:

Row | IC50 [1] | Kd [2] | Kd [3] | Kd [4] | IC50 [5] | SMILES
13 | 2.5 µM | 1.29 µM | 8.68 µM | 14.1 µM |  | CC(=O)Nc1nc(C)c(-c2csc(Nc3ccccc3OC(C)C)n2)s1 [Example 1, N-[2-(2-Isopropoxy-phenylamino)-4′-methyl-[4,5′]bithiazolyl-2′-yl]-acetamide]
14 | 0.71 µM | 5.49 µM | > 95 µM | 20 µM |  | COc1ccc(F)cc1Nc1nc(-c2sc(C)nc2C)cs1 [Example 5, (2′,4′-Dimethyl-[4,5′]bithiazolyl-2-yl)-(5-fluoro-2-methoxy-phenyl)-amine.HBr]
15 | 0.65 µM | 0.156 µM | 0.907 µM | 15.1 µM |  | COc1ccc(F)cc1Nc1nc(-c2sc(NC(C)=O)nc2C)cs1 [Example 6]
16 | 2.6 µM | 0.376 µM | 2.89 µM |  |  | COc1ccc(F)cc1Nc1nc(-c2sc(NC(C)=O)nc2C)c(Br)s1 [Example 18, N-[5-Bromo-2-(5-fluoro-2-methoxy-phenylamino)-4′-methyl-[4,5′]bithiazolyl-2′-yl]-acetamide.TFA]
17 | 5 µM |  | 28.8 µM | 5.35 µM |  | COc1ccc(F)cc1Nc1nc(-c2c(C)nc(C)n2C)cs1 [Example 42, (5-Fluoro-2-methoxy-phenyl)-[4-(2,3,5-trimethyl-3H-imidazol-4-yl)-thiazol-2-yl]-amine]
18 |  | 45.3 µM | 47.5 µM | > 95 µM | 2.1 µM | COc1ccccc1Nc1nc(-c2sc(C)nc2C)cs1 [Example 64, (2′-4′-Dimethyl-[4,5′]bithiazolyl-2-yl)-(2-methoxy-phenyl)-amine]
19 |  | 10.1 µM | 17.9 µM | 28.9 µM | 17.9 µM | COc1ccccc1Nc1nc(-c2cnc3cnccn23)cs1 [Example 75, (4-Imidazo[1,2-a]pyrazin-3-yl-thiazol-2-yl)-(2-methoxy-phenyl)-amine]
20 | 0.13 µM | 0.146 µM | 0.879 µM |  |  | COc1ccc(F)cc1Nc1nc(-c2sc(C3CCN(C)CC3)nc2C)cs1 [Example 78, N-(5-fluoro-2-methoxyphenyl)-4′-methyl-2′-(1-methylpiperidin-4-yl)-[4,5′-bithiazol]-2-amine.TFA]

Reference: US20120302573A1, “METHODS OF INHIBITING PRO MATRIX METALLOPROTEINASE ACTIVATION” (priority 2011, published 2012)
